Marks after values point to notes of the source that are not given here.

For assay [1], the system named is hyaluronic acid. Briefly: Production of hyaluronic acid by keratinocytes, ELISA of supernatants. The class given is cell-based, human. Conditions: 10^−7 M, 24 hours, positive reference. On the procedure: Normal human epidermal keratinocytes were incubated in the presence of 0.005% and 0.05% avocado perseose or 10^-7 M retinoic acid (all-trans-retinoic acid; Sigma), positive reference.
After 24 hours of incubation, hyaluronic acid produced by the keratinocytes was assayed in the cultured supernatants with an ELISA (Tebu). The quantity of hyaluronic acid measured was related to the number of living cells estimated by means of a neutral red assay.

The subject of assay [2] is PAD1. In words: Gene expression of peptidylarginine deiminase (PAD1) by RT-PCR. It counts as cell-based, human. The conditions noted are these: 10^−7 M, 48 hours, positive reference. The protocol: Normal human epidermal keratinocytes, cultured in differentiation-inducing medium (supplemented with Ca++), were incubated for 48 hours in the presence of 0.005% and 0.05% avocado perseose or 10^-7M vitamin D3 (1α,25-dihydroxyvitamin D3; Sigma), positive reference.
At the conclusion of the treatment, the RNA were extracted and the gene expression of PAD1 was evaluated by RT-PCR; the reference gene GAPDH was used to normalize the results.

Assay [3] has as its system Ehrlich ascites carcinoma tumor cells. The conditions noted are these: perseitol associated with a potassium ion; Shibuya et al. 1999; cited from earlier work.

`CC1=C(/C=C/C(C)=C/C=C/C(C)=C/C(=O)O)C(C)(C)CCC1` [Retinoic acid, all-trans-retinoic acid]: in assay [1], the “Hyaluronic acid (ng/ml/living cells)” value was found to be 544.024 ± 34.026 ng/ml/living cells and the “Increase of hyaluronic acid produced versus control cells” value is “+119% ***”. As to `C=C1/C(=C\C=C2/CCC[C@]3(C)[C@@H]([C@H](C)CCCC(C)(C)O)CC[C@@H]23)C[C@@H](O)C[C@@H]1O` [Vitamin D3, 1α,25-dihydroxyvitamin D3], in assay [2], the “PAD1 (Relative Quantity normalized by GAPDH)” value is on record as 2.66 and the “Stimulation of PAD1 gene expression versus control cells” value is “+166% **”. Regarding `OCC(O)C(O)C(O)C(O)C(O)CO` (centres unmarked) [perseitol, Perseitol], in assay [3], the “Incorporation of 3H-leucine” value is reported as “inhibits”.

These data come from US10175230B2, “Use of biomarkers for evaluating the effectiveness of active ingredients” (LABORATOIRES EXPANSCIENCE, priority 2013, dated 2019).
